# Target: T1, sodium-proton exchanger of subtype 3 (NHE3) (Homo sapiens, UniProt P48764)
# T1 construct: expressed in transfected cells
# T1 sequence (P48764 26-834): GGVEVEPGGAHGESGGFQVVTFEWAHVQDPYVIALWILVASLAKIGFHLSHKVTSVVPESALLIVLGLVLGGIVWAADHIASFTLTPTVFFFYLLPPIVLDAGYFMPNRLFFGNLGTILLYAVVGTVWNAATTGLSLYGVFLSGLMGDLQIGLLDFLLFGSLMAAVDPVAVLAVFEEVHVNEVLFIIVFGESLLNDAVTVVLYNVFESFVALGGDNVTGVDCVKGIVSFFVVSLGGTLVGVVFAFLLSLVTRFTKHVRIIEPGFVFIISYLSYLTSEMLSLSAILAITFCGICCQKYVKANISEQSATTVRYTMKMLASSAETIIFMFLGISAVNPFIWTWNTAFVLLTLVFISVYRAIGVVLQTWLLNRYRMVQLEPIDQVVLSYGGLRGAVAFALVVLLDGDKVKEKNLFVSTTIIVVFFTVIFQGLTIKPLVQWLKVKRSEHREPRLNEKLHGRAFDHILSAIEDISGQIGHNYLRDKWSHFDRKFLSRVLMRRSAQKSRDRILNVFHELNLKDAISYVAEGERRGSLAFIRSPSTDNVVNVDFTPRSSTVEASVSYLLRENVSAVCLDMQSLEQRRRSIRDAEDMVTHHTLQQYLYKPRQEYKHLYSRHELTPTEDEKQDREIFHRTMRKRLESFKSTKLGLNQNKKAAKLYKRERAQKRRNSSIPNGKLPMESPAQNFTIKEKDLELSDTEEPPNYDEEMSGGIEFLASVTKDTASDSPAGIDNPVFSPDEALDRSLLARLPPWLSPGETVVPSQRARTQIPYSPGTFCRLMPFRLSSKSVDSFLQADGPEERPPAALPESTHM
# Assay: Recovery of intracellular pH (pHi) after acidification in LAP1 cells stably expressing NHE3 (BCECF fluorescence, FLIPR)
# Format: cell-based
# Details: Activity range (inhibitory effect on NHE3), LAP1 cells stably expressing NHE3; pH recovery after acidification; range 1 is % inhibition at 10 μM
row,Structure (SMILES),IC50 [nM]
1,"Cc1nncn1-c1ccc(O[C@H]2c3ccccc3C[C@@H]2N2CCCC2)cc1 (racemic) [Example 453, 3-methyl-4-[4-(rac-trans-(1,2)-2-pyrrolidin-1-ylindan-1-yloxy)phenyl]-4H-[1,2,4]triazole]",< 1000
2,"CCN(CC)C(=O)c1ccc(O[C@H]2c3ccccc3C[C@@H]2N2CCCC2)cc1 (racemic) [Example 633, N,N-diethyl-4-(rac-trans-(1,2)-2-pyrrolidin-1-ylindan-1-yloxy)benzamide]",1000 to 10000

# Same assay, conditions: LAP1 cells stably expressing NHE3; pH recovery after acidification; range 1 is % inhibition at 10 μM; read-out: Activity range (inhibitory effect on NHE3)
Structure (SMILES),inhibition at 10 µM [%],IC50 [nM]
"Clc1cc(Cl)c2c(c1)[C@H](Oc1ccc(-n3cncn3)cc1)[C@@H](N1CC3CNCC3C1)C2 (mixture of isomers) [Example 377, 2-[rac-trans-(1,2)-4,6-dichloro-1-(4-[1,2,4]triazol-1-ylphenoxy)indan-2-yl]octahydropyrrolo[3,4-c]pyrrole]",–,< 1000
"Cc1nnc(C)n1-c1ccc(O[C@H]2c3cc(Cl)cc(Cl)c3C[C@@H]2N2CCOCC2)c(F)c1 [Example 564, 4-{trans-(1S,2S)-4,6-dichloro-1-[4-(3,5-dimethyl-[1,2,4]triazol-4-yl)-2-fluorophenoxy]indan-2-yl}morpholine]",–,< 1000
"Cc1nnc(C)n1-c1ccc(O[C@H]2c3c(Cl)sc(Cl)c3CC[C@@H]2N2CCCC2)cc1 (racemic) [Example 496, 4-[4-(1,3-dichloro-5-pyrrolidin-1-yl-4,5,6,7-tetrahydrobenzo[c]thiophen-4-yloxy)phenyl]-3,5-dimethyl-4H-[1,2,4]triazole]",–,1000 to 10000
"Cc1cccc2c1C[C@H](N1CCCC1)[C@H]2Oc1ccc(S(N)(=O)=O)cc1 (racemic) [Example 472, 4-(rac-trans-(1,2)-4-methyl-2-pyrrolidin-1-ylindan-1-yloxy)benzenesulfonamide]",–,1000 to 10000
"N[C@H]1CCCN([C@H]2CCc3ccccc3[C@@H]2Oc2ccc(Cl)cc2)C1 (racemic) [Example 175, (S)-1-[rac-trans-(1,2)-1-(4-chlorophenoxy)-1,2,3,4-tetrahydronaphthalen-2-yl]piperidin-3-ylamine]",20 to 50,–
"NCC1CCN([C@@H]2Cc3ccccc3[C@H]2Oc2cccc3[nH]ccc23)C1 (mixture of isomers) [Example 601, C-{1-[rac-trans-(1,2)-1-(1H-indol-4-yloxy)indan-2-yl]pyrrolidin-3-yl}methylamine]",–,1000 to 10000
"CCOc1cccc(O[C@@H]2c3ccccc3C[C@H]2N2CCC(CN)CC2)c1 (racemic) [Example 614, C-{1-[rac-trans-(1,2)-1-(3-ethoxyphenoxy)indan-2-yl]piperidin-4-yl}methylamine]",–,1000 to 10000
"COc1cccc(F)c1O[C@@H]1c2ccccc2C[C@H]1N1C[C@H]2CNC[C@H]2C1 (racemic) [Example 5, 2-[rac-trans-(1,2)-1-(2-fluoro-6-methoxyphenoxy)indan-2-yl]octahydropyrrolo[3,4-c]pyrrole]",–,1000 to 10000
"CN(C)[C@@H]1CCCN([C@H]2Cc3c(Cl)cc(Cl)cc3[C@@H]2Oc2ccc(S(C)(=O)=O)cc2)C1 [Example 224, {(R)-1-[trans-(1S,2S)-4,6-dichloro-1-(4-methanesulfonylphenoxy)indan-2-yl]piperidin-3-yl}-dimethylamine]",–,< 1000
"CN(C)Cc1cccc(O[C@@H]2c3ccccc3C[C@H]2N2CCC[C@H](N)C2)c1 (racemic) [Example 167, (S)-1-[rac-trans-(1,2)-1-(3-dimethylaminomethylphenoxy)indan-2-yl]piperidin-3-ylamine]",–,1000 to 10000
"NS(=O)(=O)c1ccc(O[C@H]2c3ccccc3C[C@@H]2N2CCCCCC2)cc1 (racemic) [Example 464, 4-(rac-trans-(1,2)-2-azepan-1-ylindan-1-yloxy)benzenesulfonamide]",–,< 1000

# Second part, the molecule after the results:
inhibition at 10 µM [%],IC50 [nM],Structure (SMILES)
20 to 50,–,"CS(=O)(=O)c1ccc(O[C@H]2c3ccccc3C[C@@H]2NCc2ccccc2)cc1 (racemic) [Example 597, benzyl[1-(4-methanesulfonylphenoxy)indan-2-yl]amine]"
–,1000 to 10000,"NCC1CCN([C@@H]2Cc3ccccc3[C@H]2Oc2ccc(Br)cc2-c2cc[nH]n2)C1 (mixture of isomers) [Example 600, C-(1-{rac-trans-(1,2)-1-[4-bromo-2-(1H-pyrazol-3-yl)phenoxy]indan-2-yl}pyrrolidin-3-yl)methylamine]"
20 to 50,–,"N[C@H]1CCCN([C@H]2CCc3ccccc3[C@@H]2Oc2ccc(OC(F)F)cc2)C1 (racemic) [Example 176, (S)-1-[rac-trans-(1,2)-1-(4-difluoromethoxyphenoxy)-1,2,3,4-tetrahydronaphthalen-2-yl]piperidin-3-ylamine]"
–,1000 to 10000,"CC(C)(C)N[C@H]1Cc2ccccc2[C@@H]1Oc1ccc(S(C)(=O)=O)cc1 (racemic) [Example 701, tert-butyl-[1-(4-methanesulfonylphenoxy)indan-2-yl]amine]"
–,1000 to 10000,"CS(=O)(=O)c1ccc(O[C@H]2c3ccccc3C[C@@H]2N2CCNCC2)cc1 (racemic) [Example 272, 1-[rac-trans-(1,2)-1-(4-methanesulfonylphenoxy)indan-2-yl]piperazine]"
–,< 1000,"O=C1OCCN1c1ccc(Cl)c(O[C@H]2c3cc(Cl)cc(Cl)c3C[C@@H]2N2CC[C@@H](O)C2)c1 [Example 434, 3-{4-chloro-3-[(1S,2S)-4,6-dichloro-2-((R)-3-hydroxypyrrolidin-1-yl)indan-1-yloxy]phenyl}oxazolidin-2-one]"
–,< 1000,"Cc1nnc(C)n1-c1ccc(O[C@H]2c3cc(Cl)cc(Cl)c3C[C@@H]2N2CCCC2)c(F)c1 [Example 499, 4-[4-(trans-(1S,2S)-4,6-dichloro-2-pyrrolidin-1-ylindan-1-yloxy)-3-fluorophenyl]-3,5-dimethyl-4H-[1,2,4]triazole]"
–,1000 to 10000,"NS(=O)(=O)c1ccc(O[C@H]2c3ccccc3C[C@@H]2CN2CCCC2)c(Cl)c1 (racemic) [Example 442, 3-chloro-4-(2-pyrrolidin-1-ylmethylindan-1-yloxy)benzenesulfonamide]"
20 to 50,–,"COCCc1ccc(O[C@H]2c3ccccc3CC[C@@H]2N2CCC[C@H](N)C2)cc1 (racemic) [Example 202, (S)-1-{rac-trans-(1,2)-1-[4-(2-methoxyethyl)phenoxy]-1,2,3,4-tetrahydronaphthalen-2-yl}piperidin-3-ylamine]"
–,< 1000,"CS(=O)(=O)c1ccc(O[C@H]2c3c(ccc(Cl)c3Cl)C[C@@H]2N2CCCNCC2)cc1 (racemic) [Example 288, 1-[rac-trans-(1,2)-6,7-dichloro-1-(4-methanesulfonylphenoxy)indan-2-yl]-[1,4]diazepane]"
–,1000 to 10000,"CN(C1CCNCC1)[C@@H]1Cc2ccccc2[C@H]1Oc1cccc(N2CCNCC2)c1 (racemic) [Example 629, methyl-[rac-trans-(1,2)-1-(3-piperazin-1-ylphenoxy)indan-2-yl]piperidin-4-ylamine]"
–,< 1000,"Cc1nnc(C)n1-c1ccc(O[C@H]2c3cc(Cl)cc(Cl)c3C[C@@H]2N2CCCNCC2)cc1 [Example 347, 1-{trans-(1S,2S)-4,6-dichloro-1-[4-(3,5-dimethyl-[1,2,4]triazol-4-yl)phenoxy]indan-2-yl}-[1,4]diazepane]"
–,< 1000,"C[C@@H]1CN([C@H]2Cc3c(Cl)cc(Cl)cc3[C@@H]2Oc2ccc(S(C)(=O)=O)cc2)C[C@H](C)N1 [Example 21, (3R,5S)-1-[trans-(1S,2S)-4,6-dichloro-1-(4-methanesulfonylphenoxy)indan-2-yl]-3,5-dimethylpiperazine]"
–,1000 to 10000,"O=C1CCc2c(cccc2O[C@H]2c3cc(Cl)cc(Cl)c3C[C@@H]2N2CC[C@@H](O)C2)N1 [Example 574, 5-[(1S,2S)-4,6-dichloro-2-((R)-3-hydroxypyrrolidin-1-yl)indan-1-yloxy]-3,4-dihydro-1H-quinolin-2-one]"
–,1000 to 10000,"NCC1CCN([C@@H]2Cc3ccccc3[C@H]2Oc2ccc3c(c2)OCO3)C1 (mixture of isomers) [Example 621, C-{1-[rac-trans-(1,2)-1-(benzo[1,3]dioxol-5-yloxy)indan-2-yl]pyrrolidin-3-yl}methylamine]"
–,1000 to 10000,"N[C@@H]1CCCN([C@H]2CCc3ccccc3[C@@H]2Oc2cccc3[nH]nnc23)C1 (racemic) [Example 29, (R)-1-[rac-trans-(1,2)-1-(1H-benzotriazol-4-yloxy)-1,2,3,4-tetrahydronaphthalen-2-yl]piperidin-3-ylamine]"
20 to 50,–,"N#CCc1cccc(O[C@H]2c3ccccc3CC[C@@H]2N2CCC[C@@H](N)C2)c1 (racemic) [Example 230, {3-[rac-trans-(1,2)-2-((R)-3-aminopiperidin-1-yl)-1,2,3,4-tetrahydronaphthalen-1-yloxy]phenyl}acetonitrile]"
–,1000 to 10000,"Cc1cc(O[C@H]2c3cc(F)cc(Cl)c3C[C@@H]2N2CCC[C@@H](N)C2)ccc1S(=O)(=O)C(F)(F)F (racemic) [Example 90, (R)-1-[rac-trans-(1,2)-4-chloro-6-fluoro-1-(3-methyl-4-trifluoromethanesulfonylphenoxy)indan-2-yl]piperidin-3-ylamine]"
